Patent US9884818B2, “Sulphamoylpyrrolamide derivatives and the use thereof as medicaments for the treatment of hepatitis B” (Janssen Sciences Ireland UC, priority 2013, dated 2018)

Tests used:
[1] = tested on: HBV; assay: Anti-HBV activity, HepG2.117 inducibly HBV producing cell line (Tet-off), intracellular HBV DNA by realtime PCR; format: cell-based; details: Hepatitis B virus, HepG2.117, 72 h, HepG2.117 cells, 3 days of treatment, intracellular HBV DNA; read-out: HepG2 117 EC50
[2] = Cytotoxicity in HepG2 cells, Resazurin viability assay; details: human, HepG2 cells, HepG2 4 days CC50 (μM), incubated for 4 days, Resazurin assay
[3] = tested on: HBV; assay: Anti-HBV activity, HepG2.2.15 stable transfected cell line, HBV DNA from secreted virions by realtime PCR; format: cell-based; details: HepG2.2.15 cells, 6 days of treatment, HBV DNA from secreted virions, read-out: HepG2 2.15 EC50
[4] = Hepatitis B virus, HepG2.2.15, 144 h

Row | Compound | EC50 [1] | CC50 at 4 days [2] | EC50 [3] | EC50 [3, 4]
1 | CC(CC(F)(F)F)NS(=O)(=O)c1cc(C(=O)Nc2cc(F)c(F)c(Cl)c2)n(C)c1 (single isomer, unassigned) [Compound 169a, N-(3-Chloro-4,5-difluorophenyl)-1-methyl-4-[(3,3,3-trifluoro-1-methylpropyl)sulfamoyl]-1H-pyrrole-2-carboxamide] | 50 nM | 16.1 µM | 140 nM | –
2 | CC(NS(=O)(=O)c1cc(C(=O)Nc2ccc(F)c(C#N)c2)n(C)c1)C(F)F (single isomer, unassigned) [Compound 200a, N-(3-Cyano-4-fluorophenyl)-4-{[2,2-difluoro-1-methylethyl]sulfamoyl}-1-methyl-1H-pyrrole-2-carboxamide] | 50 nM | > 25 µM | – | 100 nM
3 | Cn1cc(S(=O)(=O)NC2(C(F)(F)F)CCOC2)cc1C(=O)Nc1ccc(F)c(C#N)c1 (single isomer, unassigned) [Compound 228a, N-(3-Cyano-4-fluorophenyl)-1-methyl-4-{[3-(trifluoromethyl)tetrahydrofuran-3-yl]sulfamoyl}-1H-pyrrole-2-carboxamide] | 30 nM | > 25 µM | – | 30 nM
4 | Cn1cc(S(=O)(=O)NC2CCCC2(F)F)cc1C(=O)Nc1ccc(F)c(Cl)c1F (single isomer, unassigned) [Compound 236a, N-(3-Chloro-2,4-difluorophenyl)-4-{[2,2-difluorocyclopentyl]sulfamoyl}-1-methyl-1H-pyrrole-2-carboxamide] | 50 nM | > 25 µM | 20 nM | –
5 | Cc1cc(NC(=O)c2cc(S(=O)(=O)NC(C)C)c[nH]2)ccc1F [Compound 1, N-(4-fluoro-3-methyl-phenyl)-4-(isopropylsulfamoyl)-1H-pyrrole-2-carboxamide] | 3100 nM | > 25 µM | – | 420 nM
6 | Cc1cc(NC(=O)c2cc(S(=O)(=O)NC(C)C)cn2C)ccc1F [Compound 2, N-(4-fluoro-3-methyl-phenyl)-4-(isopropylsulfamoyl)-1-methyl-pyrrole-2-carboxamide] | 60 nM | > 25 µM | – | 30 nM
7 | Cc1cc(NC(=O)c2cc(S(=O)(=O)N[C@H](C)CO)cn2C)ccc1F [Compound 3, N-(4-fluoro-3-methyl-phenyl)-4-[[(1R)-2-hydroxy-1-methyl-ethyl]sulfamoyl]-1-methyl-pyrrole-2-carboxamide] | 100 nM | > 25 µM | – | 70 nM
8 | Cc1cc(NC(=O)c2cc(S(=O)(=O)N[C@H]3CCOC3)cn2C)ccc1F [Compound 4, N-(4-fluoro-3-methyl-phenyl)-1-methyl-4-[[(3S)-tetrahydrofuran-3-yl]-sulfamoyl]pyrrole-2-carboxamide] | 60 nM | > 25 µM | – | 100 nM
9 | Cc1cc(NC(=O)c2cc(S(=O)(=O)NC3(C)COC3)cn2C)ccc1F [Compound 5, N-(4-fluoro-3-methyl-phenyl)-1-methyl-4-[(3-methyloxetan-3-yl)-sulfamoyl]pyrrole-2-carboxamide] | 20 nM | > 25 µM | – | 30 nM
10 | CC[C@@H](C)NS(=O)(=O)c1cc(C(=O)Nc2ccc(F)c(C)c2)n(C)c1 [Compound 6, N-(4-fluoro-3-methyl-phenyl)-1-methyl-4-[[(1R)-1-methylpropyl]-sulfamoyl]pyrrole-2-carboxamide] | 20 nM | > 25 µM | – | 20 nM
11 | Cc1cc(NC(=O)c2cc(S(=O)(=O)NCC3(C)COC3)cn2C)ccc1F [Compound 7, N-(4-fluoro-3-methyl-phenyl)-1-methyl-4-[(3-methyloxetan-3-yl)methylsulfamoyl]pyrrole-2-carboxamide] | 100 nM | > 25 µM | – | 120 nM
12 | Cc1cc(NC(=O)c2cc(S(=O)(=O)N[C@@H](C)C(F)(F)F)cn2C)ccc1F [Compound 8, N-(4-fluoro-3-methyl-phenyl)-1-methyl-4-[[(1S)-2,2,2-trifluoro-1-methyl-ethyl]sulfamoyl]pyrrole-2-carboxamide] | 20 nM | > 25 µM | – | 20 nM
13 | Cc1cc(NC(=O)c2cc(S(=O)(=O)N[C@H](C)C(F)(F)F)cn2C)ccc1F [Compound 9, N-(4-fluoro-3-methyl-phenyl)-1-methyl-4-[[(1R)-2,2,2-trifluoro-1-methyl-ethyl]sulfamoyl]pyrrole-2-carboxamide] | 30 nM | > 25 µM | – | 10 nM
14 | Cc1cc(NC(=O)c2cc(S(=O)(=O)NC3(CO)COC3)cn2C)ccc1F [Compound 10, N-(4-fluoro-3-methyl-phenyl)-4-[[3-(hydroxymethyl)oxetan-3-yl]sulfamoyl]-1-methyl-pyrrole-2-carboxamide] | 80 nM | > 25 µM | – | 110 nM
15 | Cc1cc(NC(=O)c2cc(S(=O)(=O)NC3(C)CCOC3)cn2C)ccc1F (stereo not drawn) [Compound 11, N-(4-fluoro-3-methyl-phenyl)-1-methyl-4-[(3-methyltetrahydrofuran-3-yl)sulfamoyl]pyrrole-2-carboxamide] | 20 nM | > 25 µM | – | 30 nM
16 | Cc1cc(NC(=O)c2cc(S(=O)(=O)NC3(CO)CC3)cn2C)ccc1F [Compound 12, N-(4-fluoro-3-methyl-phenyl)-4-[[1-(hydroxymethyl)cyclopropyl]sulfamoyl]-1-methyl-pyrrole-2-carboxamide] | 60 nM | > 25 µM | – | 120 nM
17 | Cc1cc(NC(=O)c2cc(S(=O)(=O)NC3CC(=O)N(C)C3)cn2C)ccc1F (stereo not drawn) [Compound 13, N-(4-fluoro-3-methyl-phenyl)-1-methyl-4-[(1-methyl-5-oxo-pyrrolidin-3-yl)sulfamoyl]pyrrole-2-carboxamide] | 140 nM | > 25 µM | – | 460 nM
18 | Cc1cc(NC(=O)c2cc(S(=O)(=O)NC3(CCO)COC3)cn2C)ccc1F [Compound 14, N-(4-fluoro-3-methyl-phenyl)-4-[[3-(2-hydroxyethyl)oxetan-3-yl]sulfamoyl]-1-methyl-pyrrole-2-carboxamide] | 20 nM | > 25 µM | – | 40 nM
19 | Cc1cc(NC(=O)c2cc(S(=O)(=O)N[C@H]3C[C@@H](O)C3)cn2C)ccc1F [Compound 15, N-(4-fluoro-3-methyl-phenyl)-4-[(3-hydroxycyclobutyl)sulfamoyl]-1-methyl-pyrrole-2-carboxamide] | 130 nM | > 25 µM | – | 160 nM
20 | Cc1cc(NC(=O)c2cc(S(=O)(=O)NC(C)(C)C)cn2C)ccc1F [Compound 16, 4-(tert-butylsulfamoyl)-N-(4-fluoro-3-methyl-phenyl)-1-methyl-pyrrole-2-carboxamide] | 30 nM | > 25 µM | – | 60 nM
21 | Cc1cc(NC(=O)c2cc(S(=O)(=O)NC3(CC#N)COC3)cn2C)ccc1F [Compound 17, 4-[[3-(cyanomethyl)oxetan-3-yl]sulfamoyl]-N-(4-fluoro-3-methyl-phenyl)-1-methyl-pyrrole-2-carboxamide] | 20 nM | > 25 µM | – | 30 nM
22 | Cc1cc(NC(=O)c2cc(S(=O)(=O)NC3(CC#N)CC3)cn2C)ccc1F [Compound 18, 4-[[1-(cyanomethyl)cyclopropyl]sulfamoyl]-N-(4-fluoro-3-methyl-phenyl)-1-methyl-pyrrole-2-carboxamide] | 30 nM | > 25 µM | – | < 20 nM
